In brackets after ≈: the same amount, converted by molar mass.
How the values were obtained:
Type in all cases: functional
[1] = tested on: Staphylococcus aureus; test: Antibacterial activity against Staphylococcus aureus ATCC 29213 assessed as bacterial growth inhibition incubated for 24 hrs by broth dilution method; conditions: ATCC 29213, 24 h
[2] = tested on: Staphylococcus aureus; test: Antibacterial activity against methicillin-resistant Staphylococcus aureus ATCC 43300 assessed as bacterial growth inhibition incubated for 24 hrs by broth dilution method; conditions: ATCC 43300, 24 h
[3] = tested on: Staphylococcus aureus; test: Antibacterial activity against Staphylococcus aureus AD3 assessed as bacterial growth inhibition incubated for 24 hrs by broth dilution method; conditions: AD3, 24 h
[4] = tested on: Escherichia coli; test: Antibacterial activity against Escherichia coli ATCC 25922 assessed as bacterial growth inhibition incubated for 24 hrs by broth dilution method; conditions: ATCC 25922, 24 h
[5] = tested on: Escherichia coli; test: Antibacterial activity against Escherichia coli 9-1 assessed as bacterial growth inhibition incubated for 24 hrs by broth dilution method; conditions: 9-1, 24 h

C=C[C@]1(C)C[C@@H](OC(=O)CSc2ccccc2NC(=O)CN2CCN(c3ccccc3)CC2)[C@]2(C)[C@H](C)CC[C@]3(CCC(=O)[C@H]32)[C@@H](C)[C@@H]1O
MIC [1]: 0.25 µg/mL (≈ 0.363 µM)
MIC [2]: 0.25 µg/mL (≈ 0.363 µM)
MIC [3]: 0.25 µg/mL (≈ 0.363 µM)
MIC [4]: > 32 µg/mL
MIC [5]: > 32 µg/mL

C=C[C@]1(C)C[C@@H](OC(=O)CSc2ccccc2NC(=O)CN2CCN(c3ccc(C)cc3)CC2)[C@]2(C)[C@H](C)CC[C@]3(CCC(=O)[C@H]32)[C@@H](C)[C@@H]1O
MIC [1]: > 8 µg/mL
MIC [2]: > 8 µg/mL
MIC [3]: > 8 µg/mL
MIC [4]: > 32 µg/mL
MIC [5]: > 32 µg/mL

C=C[C@]1(C)C[C@@H](OC(=O)CSc2ccccc2NC(=O)CN2CCN(C)CC2)[C@]2(C)[C@H](C)CC[C@]3(CCC(=O)[C@H]32)[C@@H](C)[C@@H]1O
MIC [1]: 0.5 µg/mL (≈ 0.799 µM)
MIC [2]: 0.5 µg/mL (≈ 0.799 µM)
MIC [3]: 0.5 µg/mL (≈ 0.799 µM)
MIC [4]: > 32 µg/mL
MIC [5]: > 32 µg/mL

C=C[C@]1(C)C[C@@H](OC(=O)CSc2ccccc2NC(=O)CN2CCN(c3ccc(O)cc3)CC2)[C@]2(C)[C@H](C)CC[C@]3(CCC(=O)[C@H]32)[C@@H](C)[C@@H]1O
MIC [1]: 1 µg/mL (≈ 1.42 µM)
MIC [2]: 1 µg/mL (≈ 1.42 µM)
MIC [3]: 0.5 µg/mL (≈ 0.71 µM)
MIC [4]: > 32 µg/mL
MIC [5]: > 32 µg/mL

C=C[C@]1(C)C[C@@H](OC(=O)CSc2ccccc2NC(=O)CN(CC)CC)[C@]2(C)[C@H](C)CC[C@]3(CCC(=O)[C@H]32)[C@@H](C)[C@@H]1O
MIC [1]: 0.125 µg/mL (≈ 0.209 µM)
MIC [2]: 0.125 µg/mL (≈ 0.209 µM)
MIC [3]: 0.125 µg/mL (≈ 0.209 µM)
MIC [4]: > 32 µg/mL
MIC [5]: > 32 µg/mL

C=C[C@]1(C)C[C@@H](OC(=O)CSc2ccccc2NC(=O)CN2CCN(c3ccccc3OC)CC2)[C@]2(C)[C@H](C)CC[C@]3(CCC(=O)[C@H]32)[C@@H](C)[C@@H]1O
MIC [1]: > 8 µg/mL
MIC [2]: > 8 µg/mL
MIC [3]: > 8 µg/mL
MIC [4]: > 32 µg/mL
MIC [5]: > 32 µg/mL

C=C[C@]1(C)C[C@@H](OC(=O)CSc2ccccc2NC(=O)CN2CCN(c3cccc(O)c3)CC2)[C@]2(C)[C@H](C)CC[C@]3(CCC(=O)[C@H]32)[C@@H](C)[C@@H]1O
MIC [1]: 0.25 µg/mL (≈ 0.355 µM)
MIC [2]: 0.125 µg/mL (≈ 0.178 µM)
MIC [3]: 0.25 µg/mL (≈ 0.355 µM)
MIC [4]: > 32 µg/mL
MIC [5]: > 32 µg/mL

C=C[C@]1(C)C[C@@H](OC(=O)CSc2ccccc2NC(=O)CN2CCN(c3cccc(OC)c3)CC2)[C@]2(C)[C@H](C)CC[C@]3(CCC(=O)[C@H]32)[C@@H](C)[C@@H]1O
MIC [1]: > 8 µg/mL
MIC [2]: 4 µg/mL (≈ 5.57 µM)
MIC [3]: 1 µg/mL (≈ 1.39 µM)
MIC [4]: > 32 µg/mL
MIC [5]: > 32 µg/mL

C=C[C@]1(C)C[C@@H](OC(=O)CSc2ccccc2NC(=O)CN2CCC(O)CC2)[C@]2(C)[C@H](C)CC[C@]3(CCC(=O)[C@H]32)[C@@H](C)[C@@H]1O
MIC [1]: 0.125 µg/mL (≈ 0.199 µM)
MIC [2]: 0.125 µg/mL (≈ 0.199 µM)
MIC [3]: 0.25 µg/mL (≈ 0.399 µM)
MIC [4]: > 32 µg/mL
MIC [5]: > 32 µg/mL

C=C[C@]1(C)C[C@@H](OC(=O)CSc2ccccc2NC(=O)CN2CCN(c3ccccc3C)CC2)[C@]2(C)[C@H](C)CC[C@]3(CCC(=O)[C@H]32)[C@@H](C)[C@@H]1O
MIC [1]: 4 µg/mL (≈ 5.7 µM)
MIC [2]: 2 µg/mL (≈ 2.85 µM)
MIC [3]: 2 µg/mL (≈ 2.85 µM)
MIC [4]: > 32 µg/mL
MIC [5]: > 32 µg/mL

C=C[C@]1(C)C[C@@H](OC(=O)CSc2ccccc2NC(=O)CN2CCN(c3ccccc3Cl)CC2)[C@]2(C)[C@H](C)CC[C@]3(CCC(=O)[C@H]32)[C@@H](C)[C@@H]1O
MIC [1]: 8 µg/mL (≈ 11.1 µM)
MIC [2]: 8 µg/mL (≈ 11.1 µM)
MIC [3]: 8 µg/mL (≈ 11.1 µM)
MIC [4]: > 32 µg/mL
MIC [5]: > 32 µg/mL

— ChEMBL document CHEMBL4359884, “Design, synthesis and biological evaluation of novel pleuromutilin derivatives possessing acetamine phenyl linker” (Eur J Med Chem, 2019)
